Data set [1] can be described thus: Calculation of pFe3+ by HySS software from pKa and logβ values. It is filed as physicochemical. The following applies: DMSO:KCl (0.1 M) = 2:3 (V/V); calculated by HySS from pKa1, pKa2, logβ1-3. The protocol: The values of pFe^3+ were calculated by HySS software according to the results of pKa1, pKa2, logβ1, logβ2, and logβ3 determined by the above methods. The basic parameters were set as follows: FeOH = –2.563, Fe(OH)2 = –6.205, Fe(OH)3 = –15.1, Fe2(OH)2 = –2.843, Fe3(OH)4 = –6.059, Fe(OH)4 = –21.883[23].

In data set [2] the target is T1, Human MAO-B (Homo sapiens, UniProt P27338).
T1 construct: purchased Sigma-Aldrich
T1 sequence (P27338 1-520): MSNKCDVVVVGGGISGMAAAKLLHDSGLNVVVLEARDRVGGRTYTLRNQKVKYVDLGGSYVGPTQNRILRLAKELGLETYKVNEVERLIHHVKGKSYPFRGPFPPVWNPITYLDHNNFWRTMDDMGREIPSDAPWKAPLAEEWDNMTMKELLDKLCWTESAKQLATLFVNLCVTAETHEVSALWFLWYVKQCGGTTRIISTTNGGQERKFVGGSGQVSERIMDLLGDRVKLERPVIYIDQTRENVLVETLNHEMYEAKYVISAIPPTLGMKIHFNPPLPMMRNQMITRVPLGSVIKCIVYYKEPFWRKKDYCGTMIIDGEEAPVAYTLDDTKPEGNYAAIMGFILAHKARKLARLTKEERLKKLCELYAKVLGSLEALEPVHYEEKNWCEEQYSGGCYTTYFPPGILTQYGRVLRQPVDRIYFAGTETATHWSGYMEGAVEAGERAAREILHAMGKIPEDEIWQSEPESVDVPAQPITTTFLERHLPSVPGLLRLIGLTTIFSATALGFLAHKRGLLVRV
In words: Determination of human MAO-B inhibitory activity (Monoamine Oxidase Assay Kit, fluorescence). It is filed as biochemical. The conditions noted are these: for inhibition at 1 µM: compound at 1 μM, read-out: Inhibitory rate (%) 1 μM; for inhibition at 10 µM: compound at 10 μM, read-out: Inhibitory rate (%) 10 μM.
Procedure: Human MAO-B (5 mg/mL) was purchased from Sigma-Aldrich and was pre-aliquoted and stored at -70 °C. 200 μL enzymatic reactions were diluted in 2 ml microcentrifuge tubes by potassium phosphate buffer (Assay Buffer, pH 7.4) which have been provided by Sigma-Aldrich Monoamine Oxidase Assay Kit. The final volumes of the reactions were 100 μL and contained 45 μL MAO-B (0.0075 mg/mL), included 5 μL different concentrations of the testing inhibitors (10 μM, 1 μM), and 50 μL Master Reaction, p-Tyramine, HRP Enzyme and Dye Reagent. Stock solutions of the compounds were prepared in DMSO.

The nature of data set [3]: Determination of iron(III) affinity (Logβ1, Logβ2, Logβ3) by spectrophotometric titration. The following applies: DMSO:KCl (0.1 M) = 2:3 (V/V), 25 °C; for Logβ1: compound:iron 1.1:1; for Logβ2 / Logβ3: compound:iron 5:1. It is filed as physicochemical. The method, then: (§1) The automatic titration system used in the test consisted of an automatic titrator, a luminescence 759 s UV-Vis spectrophotometer, and a pH Meter (Mettler Toledo InLab Expert PRO/Mettler Toledo InLab Science). All instruments are controlled by a computer program.
(§2) The testing solution (2:3 DMSO/KCl (0.1 M), V/V) was maintained at 25 °C using a TP-3A temperature controller. The cuvette is mounted on a spectrophotometer. The E0 and s of the pH Meter were calibrated by three standard solutions (pH = 6.86, 9.18, 4.00). KCl solution (0.1 M) was used to maintain the ionic strength. For the Fe(III) affinity evaluation, the ratio of compounds to iron ion was kept at 1.1:1 (n/n) when Logβ1 was measured; the ratio of compounds to iron ion was kept at 5:1 (n/n) when Logβ2 and Logβ3 were tested.
A 45 ml KCl (0.1 M) solution was added to the cuvette (50 mm) and the pH value was acidified to 2.1. Then 30 μM DMSO solution of the testing compound and 60 μL acidic solution of FeCl3 (15 mM) were added separately, and the mixture was vigorously stirred. After the absorbance value is stabilised, a certain amount of HCl solution (4 M) was added by the automatic buret to reduce the pH of the solution by 0.1. After the system was equilibrated, the spectral scan was performed once after 20 min. This protocol was repeated until the specified endpoint of the pH value was reached. All data was recorded with the internal Visual Basic program, HypSpec2014 program was utilised for the data analysis.
Similarly, 45 ml KCl (0.1 M) solution was added to the cuvette (50 mm) and the pH value was acidified to 2.1. Then 30 μM DMSO solution of the testing compound and 60 μL acidic solution of FeCl3 (15 mM) were added separately, and the mixture was vigorously stirred. After the absorbance value is stabilised, a certain amount of KOH solution (0.1 M) was added by the automatic buret to increase the pH of the solution by 0.1. After the system was equilibrated, the spectral scan was performed once after 5 min. This protocol was repeated until the specified endpoint of the pH value was reached. All data were recorded with the internal Visual Basic program, HypSpec2014 program was utilised for the data analysis[5]^,[21]^,[22].

Data set [4] in a line: pKa determination by automatic spectrophotometric titration. The following applies: DMSO/0.1 M KCl 2:3 (V/V) solution, DMSO:KCl (0.1 M) = 2:3 (V/V), 25 °C. The format is physicochemical. The method, then: as §1, §2
The titration was performed in a 50 mm path length cuvette. 45 ml KCl (0.1 M) solution, 40 μL of saturated EDTA solution were added to the cuvette. The pH value of the solution was acidified to 2.0 with hydrochloric acid (1.5 M). Then 20 μL of test compound DMSO solution (30 μM/L) was added and stirred vigorously. By adding KOH solution (0.1 M) from the automatic buret, the pH value of the solution was increased by 0.1. […] Adding KOH solution (0.1 M) and repeated the automatic process until the specified endpoint of pH value was reached. All data were recorded internally by the Visual Basic program, and the test results are analysed by the HypSpec2014 program.

This is an account of results in publication PMC6713216, “Dual-target anti-Alzheimer’s disease agents with both iron ion chelating and monoamine oxidase-B inhibitory activity” (Journal of Enzyme Inhibition and Medicinal Chemistry, 2019).

Read-outs that look alike come from different tables or passages of the source.

As usually defined, the melting point is the temperature of the solid-liquid transition. `Cc1cc(=O)c(O)c(CO)n1CCn1cc(COc2ccc3ccc(=O)oc3c2)nn1` [Compound 27a, 3-hydroxy-2-(hydroxymethyl)-6-methyl-1–(2-(4-(((2-oxo-2H-chromen-7-yl)oxy)methyl)-1H-1,2,3-triazol-1-yl)ethyl)pyridin-4(1H)-one]: the melting point fell in the range of 212 to 215 °C. Also, the “pFe3+” value in data set [1] is listed as 18.9. Besides, in data set [2], the inhibition at 1 µM is over 20% and the inhibition at 10 µM was determined as 96.2%. In data set [3], this compound came in with a Logβ1 of 13.8, a Logβ2 of 24.0 and a Logβ3 of 33.7. Besides, the pKa in data set [4] (read-out: pKa1) amounted to 2.7. For the same compound, the pKa in data set [4] (read-out: pKa2) was found to be 9.2.
As usually defined, the IC50 is the midpoint of a concentration-inhibition curve. Read a high IC50 as weaker potency. On to `Cc1cc(=O)c(O)c(CO)n1CCCn1cc(COc2ccc3ccc(=O)oc3c2)nn1` [Compound 27b, 3-hydroxy-2-(hydroxymethyl)-6-methyl-1–(3-(4-(((2-oxo-2H-chromen-7-yl)oxy)methyl)-1H-1,2,3-triazol-1-yl)propyl)pyridin-4(1H)-one], for which the “pFe3+” value in data set [1] is 19.8. In data set [2], 680 nM corresponded to half-maximal inhibition (IC50). Further, in data set [3], the Logβ1 was 12.9, the Logβ2 is on record as 25.5 and the Logβ3 turned out to be 33.5. In data set [4] (read-out: pKa1), the pKa is 2.8. Also, in data set [4] (read-out: pKa2), the pKa came out at 8.8.
As to `Cc1cc(=O)c(O)c(C)n1CCn1cc(COc2ccc3ccc(=O)oc3c2)nn1` [Compound 27c, 3-hydroxy-2,6-dimethyl-1–(2-(4-(((2-oxo-2H-chromen-7-yl)oxy)methyl)-1H-1,2,3-triazol-1-yl)ethyl)pyridin-4(1H)-one], the “pFe3+” value in data set [1] is 18.0. Moreover, in data set [2], the inhibition at 1 µM was found to be 1.84% and the inhibition at 10 µM was found to be 91%. Moreover, in data set [3], the Logβ1 worked out at 14.9, the Logβ2 worked out at 26.0 and the Logβ3 worked out at 34.1. For the same compound, in data set [4] (read-out: pKa1), the pKa stood at 3.3. For the same compound, the pKa in data set [4] (read-out: pKa2) was determined as 9.7.
Compound `Cc1cc(=O)c(O)c(C)n1CCCn1cc(COc2ccc3ccc(=O)oc3c2)nn1` [Compound 27d, 3-hydroxy-2,6-dimethyl-1–(3-(4-(((2-oxo-2H-chromen-7-yl)oxy)methyl)-1H-1,2,3-triazol-1-yl)propyl)pyridin-4(1H)-one] registered a melting point of 263 to 265 °C. Besides, the “pFe3+” value in data set [1] was 17.6. Also, in data set [2], the inhibition at 1 µM amounted to 9.67% and the inhibition at 10 µM was 98.3%. In data set [3], this compound had a Logβ1 of 14.9, a Logβ2 of 26.3 and a Logβ3 of 34.8. Also, in data set [4] (read-out: pKa1), the pKa stood at 3.4. Besides, the pKa in data set [4] (read-out: pKa2) came to 10.
`CCc1c(O)c(=O)ccn1CCCn1cc(COc2ccc3ccc(=O)oc3c2)nn1` [Compound 27e, 2-ethyl-3-hydroxy-1–(3-(4-(((2-oxo-2H-chromen-7-yl)oxy)methyl)-1H-1,2,3-triazol-1-yl)propyl)pyridin-4(1H)-one]: the “pFe3+” value in data set [1] was 17.1. For the same compound, in data set [2], the inhibition at 1 µM worked out at 1.23% and the inhibition at 10 µM is 95.7%. Further, in data set [3], the Logβ1 was 14.7, the Logβ2 was determined as 26.0 and the Logβ3 was found to be 33.2. The pKa in data set [4] (read-out: pKa1) came to 3.2. Also, the pKa in data set [4] (read-out: pKa2) stood at 9.8.
In turn, `CCc1c(O)c(=O)ccn1CCn1cc(COc2cc(=O)oc3ccccc23)nn1` [Compound 27f, 2-ethyl-3-hydroxy-1–(2-(4-(((2-oxo-2H-chromen-4-yl)oxy)methyl)-1H-1,2,3-triazol-1-yl)ethyl)pyridin-4(1H)-one] displayed a melting point of 253 to 256 °C. In addition, the “pFe3+” value in data set [1] is listed as 16.7. For the same compound, in data set [2], the inhibition at 1 µM is over 30% and the inhibition at 10 µM turned out to be 93.3%. Further, in data set [3], the Logβ1 is recorded as 14.9, the Logβ2 is listed as 25.7 and the Logβ3 is listed as 32.8. Also, the pKa in data set [4] (read-out: pKa1) was 3.4. Besides, in data set [4] (read-out: pKa2), the pKa is 9.8.
With `CCc1c(O)c(=O)ccn1CCCn1cc(COc2cc(=O)oc3ccccc23)nn1` [Compound 27g, 2-ethyl-3-hydroxy-1–(3-(4-(((2-oxo-2H-chromen-4-yl)oxy)methyl)-1H-1,2,3-triazol-1-yl)propyl)pyridin-4(1H)-one], the melting point fell in the range of 195 to 198 °C. The “pFe3+” value in data set [1] is 17.1. In data set [2], the inhibition at 1 µM was over 20% and the inhibition at 10 µM is 89.5%. In data set [3], this compound yielded a Logβ1 of 14.6, a Logβ2 of 25.6 and a Logβ3 of 33.1. Moreover, the pKa in data set [4] (read-out: pKa1) was 3.2. In addition, the pKa in data set [4] (read-out: pKa2) was 9.7.
`Cc1cc(=O)c(O)c(CO)n1CCn1cc(COc2cc(=O)oc3ccccc23)nn1` [Compound 27h, 3-hydroxy-2-(hydroxymethyl)-6-methyl-1–(2-(4-(((2-oxo-2H-chromen-4-yl)oxy)methyl)-1H-1,2,3-triazol-1-yl)ethyl)pyridin-4(1H)-one] came in with a melting point of 142 to 148 °C. For the same compound, in data set [1], the “pFe3+” value is on record as 18.7. In data set [2], the inhibition at 1 µM stood at 13.2% and the inhibition at 10 µM stood at 85.7%. In addition, in data set [3], the Logβ1 was found to be 13.3, the Logβ2 worked out at 24.8 and the Logβ3 was 33.2. For the same compound, the pKa in data set [4] (read-out: pKa1) was found to be 3. Further, in data set [4] (read-out: pKa2), the pKa worked out at 9.1.
Turning to `CCc1c(O)c(=O)ccn1CCn1cc(COc2cc3ccccc3oc2=O)nn1` [Compound 27i, 2-ethyl-3-hydroxy-1–(2-(4-(((2-oxo-2H-chromen-3-yl)oxy)methyl)-1H-1,2,3-triazol-1-yl)ethyl)pyridin-4(1H)-one], the melting point is 258 to 261 °C. Moreover, in data set [1], the “pFe3+” value is 17.0. In data set [2], the inhibition at 1 µM is over 30% and the inhibition at 10 µM came out at 94%. Moreover, in data set [3], the Logβ1 was 14.2, the Logβ2 is given as 25.4 and the Logβ3 stood at 32.8. For the same compound, in data set [4] (read-out: pKa1), the pKa turned out to be 2.9. Moreover, in data set [4] (read-out: pKa2), the pKa is 9.6.
For `Cc1cc(=O)c(O)c(CO)n1CCCn1cc(COc2cc3ccccc3oc2=O)nn1` [Compound 27k, 3-hydroxy-2-(hydroxymethyl)-6-methyl-1–(3-(4-(((2-oxo-2H-chromen-3-yl)oxy)methyl)-1H-1,2,3-triazol-1-yl)propyl)pyridin-4(1H)-one], the “pFe3+” value in data set [1] is listed as 18.4. In addition, in data set [2], the inhibition at 1 µM is over 30% and the inhibition at 10 µM is 90.5%. In data set [3], this compound returned a Logβ1 of 13.6, a Logβ2 of 24.5 and a Logβ3 of 33.0. Also, the pKa in data set [4] (read-out: pKa1) was 3.3. Further, the pKa in data set [4] (read-out: pKa2) turned out to be 9.1.
